Reference: patent US20030129629A1, “Methods and compositions for the identification, assessment, prevention, and therapy of human cancers” (Millennium Pharmaceuticals, Inc., priority 2000, published 2003)

Tested on: 60 cancer cell lines (NCI 60 cancer cell line series)
Assay: NCI-DTP in vitro cancer screen, sulforhodamine B (SRB) growth inhibition, 48 hour exposure
Assay type: cell-based, human
Experimental: Cancer Cell Line Preparation. Sixty cancer cell lines were obtained from the National Cancer Institute Developmental Therapeutics Program (NCI-DTP). Procedures for growing cells and testing compounds have been described previously (Scudiero et al., Cancer Res. 1988, 48:4827-4833; Stinson et al., Anticancer Res.; Myers et al., Electrophoresis 1997, 18:647-653). Cells are plated on day 0 at a density individualized for each cell line so that they will generally be sub-confluent at the end of the assay period. On day 1, a compound is added in the format for a duplicate-well, 5-dose, ten-fold interval dose response study.
No-drug, no-cell and no-growth controls are included. On day 3 the cells are processed for staining with sulforhodamine B (SRB), which reflects the amount of cell mass present at the end of a 48 hour exposure to the test agent. From dose response curves based on the SRB data, various parameters can be determined. […] More precisely, the quantity used in the calculation to be described is the potency measure −log{GI50}.
Activity database (A). […] This subset of compounds was selected from the larger 23,000 compound database available from the DTP. The compounds were selected on the basis of their known mechanism of action and chemical structure. The average potency −log{GI50} was extracted from the comma-delimited text files available through the Web at http://www.nci.nih.gov/intra/lmp/jnwbio.html. Subsequently, these −log{GI50} values were inspected manually and classified as indicating either Low, Medium or High sensitivity to each compound.

O=C1c2c(O)ccc(O)c2C(=O)c2c(NCCNCCO)ccc(NCCNCCO)c21 [Mitoxantrone]
1: classification of cell line as Low(1), Medium(2), High(3) sensitivity to compound (Breast MCF7/ADRr CL5002) | classification of cell line as Low(1), Medium(2), High(3) sensitivity to compound (Breast MDA-MB-231 CL5005) | classification of cell line as Low(1), Medium(2), High(3) sensitivity to compound (Breast MDA-MB-435 CL5011) | classification of cell line as Low(1), Medium(2), High(3) sensitivity to compound (Breast MDA-N CL5012) | classification of cell line as Low(1), Medium(2), High(3) sensitivity to compound (Colon HCC-2998 CL4002) | classification of cell line as Low(1), Medium(2), High(3) sensitivity to compound (Colon HCT-15 CL4015) | classification of cell line as Low(1), Medium(2), High(3) sensitivity to compound (Colon HT29(I) CL4001) | classification of cell line as Low(1), Medium(2), High(3) sensitivity to compound (Colon KM12 CL4017) | classification of cell line as Low(1), Medium(2), High(3) sensitivity to compound (Melanoma SK-MEL-2 CL10005) | classification of cell line as Low(1), Medium(2), High(3) sensitivity to compound (Melanoma SK-MEL-28 CL10008) | classification of cell line as Low(1), Medium(2), High(3) sensitivity to compound (Melanoma UACC-257 CL10021) | classification of cell line as Low(1), Medium(2), High(3) sensitivity to compound (NSCLC EKVX CL1008) | sensitivity classification Low(1)/Medium(2)/High(3) (NSCLC NCI-H332M CL1017) | sensitivity classification Low(1)/Medium(2)/High(3) (Ovarian OVCAR-3 CL6001) | sensitivity classification Low(1)/Medium(2)/High(3) (Ovarian OVCAR-4 CL6002) | sensitivity classification Low(1)/Medium(2)/High(3) (Ovarian OVCAR-5 CL6003) | sensitivity classification Low(1)/Medium(2)/High(3) (Renal TK10 CL9024) | sensitivity classification Low(1)/Medium(2)/High(3) (Renal UO-31 CL9004)
2: classification of cell line as Low(1), Medium(2), High(3) sensitivity to compound (Breast BT-549 CL5013) | classification of cell line as Low(1), Medium(2), High(3) sensitivity to compound (Breast HS-578T CL5006) | classification of cell line as Low(1), Medium(2), High(3) sensitivity to compound (Breast T-47D CL5014) | classification of cell line as Low(1), Medium(2), High(3) sensitivity to compound (CNS SF-268 CL12014) | classification of cell line as Low(1), Medium(2), High(3) sensitivity to compound (CNS SF-295 CL12015) | classification of cell line as Low(1), Medium(2), High(3) sensitivity to compound (Colon COLO-250 CL4010) | classification of cell line as Low(1), Medium(2), High(3) sensitivity to compound (Colon HCT-116 CL4003) | classification of cell line as Low(1), Medium(2), High(3) sensitivity to compound (Colon SW-620 CL4009) | classification of cell line as Low(1), Medium(2), High(3) sensitivity to compound (Leukemia K562(I) CL7005) | classification of cell line as Low(1), Medium(2), High(3) sensitivity to compound (Leukemia RPMI-8226(I) CL7010) | classification of cell line as Low(1), Medium(2), High(3) sensitivity to compound (Melanoma LOX IMVI CL10001) | classification of cell line as Low(1), Medium(2), High(3) sensitivity to compound (Melanoma M14 CL10014) | classification of cell line as Low(1), Medium(2), High(3) sensitivity to compound (Melanoma MALME-3M CL10002) | classification of cell line as Low(1), Medium(2), High(3) sensitivity to compound (Melanoma SK-MEL-5 CL10007) | classification of cell line as Low(1), Medium(2), High(3) sensitivity to compound (Melanoma UACC-62 CL10020) | sensitivity classification Low(1)/Medium(2)/High(3) (NSCLC NCI-H23(I) CL1001) | sensitivity classification Low(1)/Medium(2)/High(3) (NSCLC NCI-H522 CL1003) | sensitivity classification Low(1)/Medium(2)/High(3) (Ovarian IGROV1 CL6010) | sensitivity classification Low(1)/Medium(2)/High(3) (Ovarian OVCAR-8 CL6005) | sensitivity classification Low(1)/Medium(2)/High(3) (Ovarian SK-OV-3 CL6011) | sensitivity classification Low(1)/Medium(2)/High(3) (Prostate DU-145 CL11003) | sensitivity classification Low(1)/Medium(2)/High(3) (Prostate PC-3(I) CL11001) | sensitivity classification Low(1)/Medium(2)/High(3) (Renal 786-0 CL9018) | sensitivity classification Low(1)/Medium(2)/High(3) (Renal A498 CL9013) | sensitivity classification Low(1)/Medium(2)/High(3) (Renal RXF-393 CL9016)
3: classification of cell line as Low(1), Medium(2), High(3) sensitivity to compound (Breast MCF7(I) CL5001) | classification of cell line as Low(1), Medium(2), High(3) sensitivity to compound (CNS SF-539 CL12016) | classification of cell line as Low(1), Medium(2), High(3) sensitivity to compound (CNS SNB-19 CL12002) | classification of cell line as Low(1), Medium(2), High(3) sensitivity to compound (CNS SNB-75(I) CL12005) | classification of cell line as Low(1), Medium(2), High(3) sensitivity to compound (CNS U251(I) CL12009) | classification of cell line as Low(1), Medium(2), High(3) sensitivity to compound (Leukemia CCRF-CEM(I) CL7003) | classification of cell line as Low(1), Medium(2), High(3) sensitivity to compound (Leukemia HL-60(I) CL7008) | classification of cell line as Low(1), Medium(2), High(3) sensitivity to compound (Leukemia MOLT-4 CL7006) | classification of cell line as Low(1), Medium(2), High(3) sensitivity to compound (Leukemia SR CL7019) | classification of cell line as Low(1), Medium(2), High(3) sensitivity to compound (NSCLC A549/ATCC CL1004) | classification of cell line as Low(1), Medium(2), High(3) sensitivity to compound (NSCLC HOP-62 CL1026) | classification of cell line as Low(1), Medium(2), High(3) sensitivity to compound (NSCLC HOP-92 CL1029) | classification of cell line as Low(1), Medium(2), High(3) sensitivity to compound (NSCLC NCI-H226 CL1013) | sensitivity classification Low(1)/Medium(2)/High(3) (NSCLC NCI-H460 CL1021) | sensitivity classification Low(1)/Medium(2)/High(3) (Renal ACHN CL9023) | sensitivity classification Low(1)/Medium(2)/High(3) (Renal CAKI-1 CL9015) | sensitivity classification Low(1)/Medium(2)/High(3) (Renal SN12C CL9008)
